These results are taken from ChEMBL document CHEMBL3997815, “Influence of substituent heteroatoms on the cytoprotective properties of pyrimidinol antioxidants” (Bioorg Med Chem, 2017).

Activity calls are given as the source filed them. No cut-off for these calls is given here.

In data set [1] the test system is Lymphocyte. Put plainly: Antioxidant activity in FRDA patient derived lymphocytes assessed as inhibition of DEM-mediated reactive oxygen species formation at 0.1 to 2.5 uM pretreated for 16 hrs followed by DEM addition measured after 80 mins by DCFH-DA dye-based flow cytometric analysis. The class given is functional, cell-based. Particulars: Homo sapiens.
Data set [2] relates to Lymphocyte. The data set is described as follows: Cytoprotective activity against DEM-induced oxidative stress in FRDA patient derived lymphocytes assessed as increase in cell viability at 0.1 to 2.5 uM pretreated for 16 hrs followed by DEM addition measured after 6 hrs by calcein acetoxy-methyl-ester/ethidium homodimer-1 staining-based flow cytometric analysis. Conditions: Homo sapiens. In kind it is functional.

Data set [3] concerns Lymphocyte. The data set is described as follows: Cytoprotective activity in DEM-treated FRDA patient derived lymphocytes assessed as preservation of mitochondrial inner membrane potential at 2.5 uM pretreated for 16 hrs followed by DEM addition measured after 120 mins by TMRM dye-based flow cytometric analysis. In kind it is functional, cell-based. Conditions: Homo sapiens. Background: A flow cytometer gives signals particle by particle.

Data set [4] deals with Lymphocyte. The data set is described as follows: Antioxidant activity in FRDA patient derived lymphocytes assessed as inhibition of DEM-mediated lipid peroxidation at 0.1 to 2.5 uM pretreated for 16 hrs followed by DEM addition measured after 120 mins by C11-BODIPY581/591 probe-based FACS analysis. The class given is functional, cell-based. Particulars: Homo sapiens.
Data set [5] is described as follows: Metabolic stability in bovine liver microsomes assessed as compound recovery at 25 uM after 30 mins in presence of beta-NADPH by HPLC method. Particulars: cattle, read-out: Drug recovery. The class given is ADME, Bos taurus, microsome. (Liver microsomes are a subcellular fraction often used to study metabolism.)
Data set [6] relates to Lymphocyte. The data set is described as follows: Cytoprotective activity in DEM-treated FRDA patient derived lymphocytes assessed as preservation of mitochondrial inner membrane potential at 0.5 uM pretreated for 16 hrs followed by DEM addition measured after 120 mins by TMRM dye-based flow cytometric analysis. Conditions: Homo sapiens. The class given is functional, cell-based.

Data set [7] relates to Lymphocyte. Put plainly: Cytoprotective activity in FRDA patient derived lymphocytes cultured in glucose-free media supplemented with galactose assessed as total intracellular ATP levels at 1 uM after 48 hrs by luciferin-luciferase reaction-based bioluminescence assay relative to control. The class given is functional, Homo sapiens.
Data set [8] has as its system Lymphocyte. Put plainly: Cytoprotective activity in FRDA patient derived lymphocytes cultured in glucose-free media supplemented with galactose assessed as total intracellular ATP levels at 5 uM after 48 hrs by luciferin-luciferase reaction-based bioluminescence assay relative to control. The class given is functional, Homo sapiens.
Data set [9] relates to Lymphocyte. The data set is described as follows: Cytoprotective activity in FRDA patient derived lymphocytes cultured in glucose-free media supplemented with galactose assessed as total intracellular ATP levels at 25 uM after 48 hrs by luciferin-luciferase reaction-based bioluminescence assay relative to control. In kind it is functional, Homo sapiens.
The subject of data set [10] is Lymphocyte. Put plainly: Antioxidant activity in FRDA patient derived lymphocytes assessed as inhibition of DEM-mediated lipid peroxidation at 0.1 to 0.5 uM pretreated for 16 hrs followed by DEM addition measured after 120 mins by C11-BODIPY581/591 probe-based FACS analysis. In kind it is functional, cell-based. Particulars: Homo sapiens.
Data set [11] deals with Lymphocyte. The data set is described as follows: Antioxidant activity in FRDA patient derived lymphocytes assessed as inhibition of DEM-mediated reactive oxygen species formation at 2.5 uM pretreated for 16 hrs followed by DEM addition measured after 80 mins by DCFH-DA dye-based flow cytometric analysis. The class given is functional, cell-based. Conditions: Homo sapiens.

The subject of data set [12] is Lymphocyte. Put plainly: Cytoprotective activity against DEM-induced oxidative stress in FRDA patient derived lymphocytes assessed as increase in cell viability at 2.5 uM pretreated for 16 hrs followed by DEM addition measured after 6 hrs by calcein acetoxy-methyl-ester/ethidium homodimer-1 staining-based flow cytometric analysis. Conditions: Homo sapiens. In kind it is functional.

As to `CCCCCCCCCCCCCCCCc1nc(N2CCC2)nc(OC2CCC2)c1O`, the inhibition result in the data set with Lymphocyte [1] and in the data set on Lymphocyte [4] was “Active” throughout. Besides, the result with Lymphocyte [2] and in the data set with Lymphocyte [3] was Active.

On to `CCCCCCCCCCCCCCc1nc(N2CCC2)nc(N2CCC2)c1O`, for which the result in the data set on Lymphocyte [2] and in the data set with Lymphocyte [3] was Active. In addition, the remaining at 0.5 h, 25 µM in [5] was determined as 63%. The inhibition entry in the data set on Lymphocyte [4] is “inactive”.

`CCCCCCCCCCCCCCc1nc(OC2CCC2)nc(N2CCC2)c1O`: the inhibition entry in the data set with Lymphocyte [1] and with Lymphocyte [4] was “Active” each time. Further, the result with Lymphocyte [2] and with Lymphocyte [3] was Active. Further, the remaining at 0.5 h, 25 µM in [5] was 77%.

As to `COC1=C(OC)C(=O)C(CCCCCCCCCCO)=C(C)C1=O` [IDEBENONE], the result with Lymphocyte [6] and with Lymphocyte [3] was Active. Besides, the remaining at 0.5 h, 25 µM in data set [5] worked out at 61%. The Activity is 98% in the data set on Lymphocyte [7], 73% in the data set on Lymphocyte [8] and 3% with Lymphocyte [9]. Also, the inhibition entry in the data set on Lymphocyte [4] was “Active”.

With `Cc1nc(OC2CCC2)nc(N2CCC2)c1O`, the inhibition result in the data set with Lymphocyte [4] is “inactive”.

As for `Cc1nc(OC2CCC2)nc(OC2CCC2)c1O`, the inhibition result in the data set on Lymphocyte [4] was “inactive”.

In the case of `CCCCCCCCCCCCCCCCc1nc(N2CCC2)nc(N2CCC2)c1O`, the result with Lymphocyte [2] and with Lymphocyte [3] was Active. Further, the remaining at 0.5 h, 25 µM in data set [5] stood at 62%. In addition, in the data set with Lymphocyte [4], the inhibition result was “inactive”.

Turning to `Cc1nc(N2CCC2)nc(OC2CCC2)c1O`, the inhibition entry in the data set on Lymphocyte [4] is “inactive”.

For the molecule `CCCCCCCCCCCCCCCCc1nc(OC2CCC2)nc(N2CCC2)c1O`, the inhibition result with Lymphocyte [1] and in the data set on Lymphocyte [4] was “Active” throughout. Also, the result in the data set with Lymphocyte [2] and with Lymphocyte [3] was Active. In addition, the remaining at 0.5 h, 25 µM in data set [5] came out at 63%.

Take `CCCCCCCCCCCCCCc1nc(N2CCC2)nc(OC2CCC2)c1O`: the inhibition entry with Lymphocyte [1] and in the data set on Lymphocyte [4] was “Active” in each case. Besides, the outcome in the data set on Lymphocyte [2] and with Lymphocyte [3] was Active. Also, in [5], the remaining at 0.5 h, 25 µM was 63%.

For the molecule `CCCCCCCCCCCCCCc1nc(OC2CCC2)nc(OC2CCC2)c1O`, the remaining at 0.5 h, 25 µM in [5] stood at 72%. In addition, the outcome in the data set with Lymphocyte [3] and in the data set on Lymphocyte [12] was Active. The inhibition entry in the data set on Lymphocyte [10] is “inactive”. The inhibition entry in the data set with Lymphocyte [11] and in the data set on Lymphocyte [4] was “Active” throughout.

Take `CCCCCCCCCCCCCCCCc1nc(OC2CCC2)nc(OC2CCC2)c1O`: in data set [5], the remaining at 0.5 h, 25 µM came out at 60%. For the same molecule, the inhibition entry in the data set with Lymphocyte [4] was “inactive”.

On to `Cc1nc(N2CCC2)nc(N2CCC2)c1O`, for which the inhibition entry with Lymphocyte [4] is “inactive”.
